In patent US20090042857A1, “Novel Pharmaceutical” (priority 2006, published 2009):
Counter-ions that a name gives are not always drawn.

Target: T1, androgen receptor (Rattus norvegicus, UniProt P15207)
T1 sequence (P15207 1-902): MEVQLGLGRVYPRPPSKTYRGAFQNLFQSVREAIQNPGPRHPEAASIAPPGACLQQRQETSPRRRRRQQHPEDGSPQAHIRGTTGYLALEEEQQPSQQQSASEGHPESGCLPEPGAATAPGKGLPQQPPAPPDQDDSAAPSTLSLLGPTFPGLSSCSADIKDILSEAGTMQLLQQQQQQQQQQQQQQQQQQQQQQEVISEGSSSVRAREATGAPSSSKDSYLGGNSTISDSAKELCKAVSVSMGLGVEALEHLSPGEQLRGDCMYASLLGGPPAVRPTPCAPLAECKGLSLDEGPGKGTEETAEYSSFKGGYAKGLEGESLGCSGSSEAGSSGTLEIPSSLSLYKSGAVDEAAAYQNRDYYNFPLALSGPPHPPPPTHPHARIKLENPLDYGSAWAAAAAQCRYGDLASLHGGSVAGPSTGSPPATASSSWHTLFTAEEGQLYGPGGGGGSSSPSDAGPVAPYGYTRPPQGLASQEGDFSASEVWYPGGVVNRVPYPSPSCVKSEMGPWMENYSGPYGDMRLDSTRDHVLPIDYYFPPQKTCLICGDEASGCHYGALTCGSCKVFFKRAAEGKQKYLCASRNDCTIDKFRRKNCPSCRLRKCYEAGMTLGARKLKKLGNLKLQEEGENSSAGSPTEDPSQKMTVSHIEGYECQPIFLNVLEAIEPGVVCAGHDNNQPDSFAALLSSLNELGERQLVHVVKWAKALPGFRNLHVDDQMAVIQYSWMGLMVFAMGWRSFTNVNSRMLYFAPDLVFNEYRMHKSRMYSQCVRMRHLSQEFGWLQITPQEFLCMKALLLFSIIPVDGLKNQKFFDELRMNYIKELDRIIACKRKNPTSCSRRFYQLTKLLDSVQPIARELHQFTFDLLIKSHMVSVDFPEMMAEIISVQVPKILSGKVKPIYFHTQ
Assay: Measurement of organ selective androgen receptor regulating action (organ weights in castrated, testosterone propionate-supplemented rats)
Type: in vivo, Sprague-Dawley male rat
Set-up: from tissue; host or cells: Sprague-Dawley male rat, whole animal (levator ani muscle, prostate, vesicular gland)
Conditions: testosterone propionate 0.5 mg/kg s.c. once a day, twice a day, 1 week
Description: A 3-week-old Sprague-Dawley male rat was castrated, and testosterone•propionate (0.5 mg/kg) was administered subcutaneously once a day from the next day. Simultaneously, a test compound was dissolved in 10% ethanol/corn oil, and orally administered twice a day. The next day of a 1 week administration, the weights of the levator ani muscle, prostate and vesicular gland were measured. The dose of the test compound is indicated in a daily amount.
As the test compounds, compound 114, compound 158, compound 117, compound 119 and compound of Reference Example 2 were used.

[1] = test compound 3 mg/kg/day orally
[2] = test compound 10 mg/kg/day orally
[3] = test compound 4.143 mg/kg/day orally
[4] = test compound 13.81 mg/kg/day orally
[5] = test compound 0.4138 mg/kg/day orally
[6] = test compound 1.379 mg/kg/day orally

Molecule: C[C@H]1[C@@H](C(C)(C)O)CCN1c1ccc(C#N)c2sccc12 [Reference Example 2, 4-[(2S,3S)-3-(1-hydroxy-1-methylethyl)-2-methylpyrrolidin-1-yl]-1-benzothiophene-7-carbonitrile]
- levator ani muscle weight, relative % to control [1]: 108.0%
- prostate weight, relative % to control [1]: 92.0%
- levator ani muscle weight, relative % to control [2]: 120.1%
- prostate weight, relative % to control [2]: 87.5%

Molecule: 4-[(2S,3R)-3-hydroxy-2-methyl-1-pyrrolidinyl]-1-naphtonitrile methanesulfonate [compound 114]
- levator ani muscle weight, relative % to control [3]: 142.1%
- prostate weight, relative % to control [3]: 90.6%
- levator ani muscle weight, relative % to control [4]: 157.7%
- prostate weight, relative % to control [4]: 99.1%

Molecule: C[C@H]1[C@@H](O)CCN1c1ccc(C#N)c2sccc12 [compound 119, 4-[(2S,3S)-3-hydroxy-2-methyl-1-pyrrolidinyl]-1-benzothiophene-7-carbonitrile sulfate]
- levator ani muscle weight, relative % to control [5]: 131.5%
- prostate weight, relative % to control [5]: 87.8%
- levator ani muscle weight, relative % to control [6]: 151.8%
- prostate weight, relative % to control [6]: 91.4%
